Active and inactive are the calls of the source. The rule behind the calls is not given here.
Experiments:
[1] = target: T1, Protein deacetylase HDAC6 (Homo sapiens, UniProt Q9UBN7); experiment: Inhibition of recombinant human N-terminal GST-tagged HDAC6 (1 to 1215 residues) expressed in baculovirus infected insect cells using RHK-K(Ac)-AMC as substrate after 90 mins by fluorimetry analysis
T1 sequence (Q9UBN7 whole entry): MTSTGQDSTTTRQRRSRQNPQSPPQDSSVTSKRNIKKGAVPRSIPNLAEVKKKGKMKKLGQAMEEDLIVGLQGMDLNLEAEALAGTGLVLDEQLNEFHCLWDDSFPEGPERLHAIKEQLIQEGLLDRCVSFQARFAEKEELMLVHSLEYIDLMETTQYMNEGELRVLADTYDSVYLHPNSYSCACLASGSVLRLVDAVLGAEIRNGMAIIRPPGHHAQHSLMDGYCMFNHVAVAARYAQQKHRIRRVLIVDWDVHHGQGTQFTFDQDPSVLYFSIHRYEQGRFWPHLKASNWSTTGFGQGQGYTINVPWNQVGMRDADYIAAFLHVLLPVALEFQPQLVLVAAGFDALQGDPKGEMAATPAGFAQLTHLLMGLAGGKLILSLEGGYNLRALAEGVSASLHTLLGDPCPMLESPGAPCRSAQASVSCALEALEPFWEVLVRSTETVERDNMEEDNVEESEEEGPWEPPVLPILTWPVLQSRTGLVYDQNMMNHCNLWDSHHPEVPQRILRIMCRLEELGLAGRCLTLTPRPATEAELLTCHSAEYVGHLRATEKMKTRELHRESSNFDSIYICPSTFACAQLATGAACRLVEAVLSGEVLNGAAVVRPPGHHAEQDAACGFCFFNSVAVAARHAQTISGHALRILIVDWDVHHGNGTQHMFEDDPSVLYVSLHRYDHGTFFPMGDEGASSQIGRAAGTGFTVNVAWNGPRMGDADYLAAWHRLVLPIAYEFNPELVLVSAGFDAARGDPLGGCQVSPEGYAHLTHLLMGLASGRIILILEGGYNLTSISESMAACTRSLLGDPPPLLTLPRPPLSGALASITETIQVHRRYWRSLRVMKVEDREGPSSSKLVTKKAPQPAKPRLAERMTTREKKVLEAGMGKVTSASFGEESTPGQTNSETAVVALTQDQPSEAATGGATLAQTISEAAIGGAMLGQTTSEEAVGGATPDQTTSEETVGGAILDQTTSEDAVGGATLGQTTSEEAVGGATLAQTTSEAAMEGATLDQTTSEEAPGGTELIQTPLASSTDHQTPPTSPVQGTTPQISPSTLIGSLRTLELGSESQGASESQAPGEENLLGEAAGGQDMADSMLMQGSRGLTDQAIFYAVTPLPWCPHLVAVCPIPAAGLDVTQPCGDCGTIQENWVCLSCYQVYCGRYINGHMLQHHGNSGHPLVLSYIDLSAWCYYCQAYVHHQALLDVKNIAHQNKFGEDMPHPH

SH-SY5Y [2] = experiment: Neuroprotective activity against OGD-induced hypoxic injury in human SH-SY5Y cells assessed as LDH release at 1 nM to 10 uM incubated under oxygen/glucose deprivation-induced hypoxic medium by LDH assay; format: functional, cell-based
Histone deacetylase 8 = target: T2, Histone deacetylase 8 (Homo sapiens, UniProt Q9BY41); experiment: Inhibition of recombinant C-terminal His-tagged and N-terminal Streptavidin2-tagged human HDAC8 (1 to 377 residues) expressed in baculovirus infected insect cells using RHK-K(Ac)-AMC as substrate after 60 mins by fluorescence assay
T2 sequence (Q9BY41 whole entry): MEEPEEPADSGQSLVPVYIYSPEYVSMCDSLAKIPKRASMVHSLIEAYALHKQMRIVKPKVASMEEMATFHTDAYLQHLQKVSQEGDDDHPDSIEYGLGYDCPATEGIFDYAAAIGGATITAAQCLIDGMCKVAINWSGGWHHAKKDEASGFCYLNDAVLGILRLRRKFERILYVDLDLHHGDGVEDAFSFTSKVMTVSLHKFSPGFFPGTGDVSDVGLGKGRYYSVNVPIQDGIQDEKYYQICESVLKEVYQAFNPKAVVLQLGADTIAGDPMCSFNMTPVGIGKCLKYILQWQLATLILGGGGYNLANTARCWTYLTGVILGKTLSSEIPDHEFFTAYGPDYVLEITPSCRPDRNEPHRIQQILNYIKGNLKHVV

Histone deacetylase 2 = Histone deacetylase 2 (Homo sapiens, UniProt Q92769); experiment: Inhibition of recombinant human C-terminal GST-tagged HDAC2 (1 to 488 residues) expressed in baculovirus infected sf21 cells using RHK-K(Ac)-AMC as substrate after 60 mins by fluorimetry assay
Histone deacetylase 1 = Histone deacetylase 1 (Homo sapiens, UniProt Q13547); experiment: Inhibition of recombinant full length human C-terminal FLAG/His-tagged HDAC1 (1 to 482 residues) expressed in baculovirus infected Sf21 cells using RHK-K(Ac)-AMC as substrate measured after 60 mins by fluorimetric assay
SH-SY5Y [3] = experiment: Neuroprotective activity against OGD-induced hypoxic injury in human SH-SY5Y cells assessed as LDH release at 10 uM incubated under oxygen/glucose deprivation-induced hypoxic medium by LDH assay (reference value: 27.47 +/- 3.23 %); format: functional
SH-SY5Y [4] = experiment: Neuroprotective activity against OGD-induced hypoxic injury in human SH-SY5Y cells assessed as LDH release at 5 uM incubated under oxygen/glucose deprivation-induced hypoxic medium by LDH assay (reference value: 27.47 +/- 3.23 %); format: functional
SH-SY5Y [5] = experiment: Neuroprotective activity against OGD-induced hypoxic injury in human SH-SY5Y cells assessed as LDH release at 1 uM incubated under oxygen/glucose deprivation-induced hypoxic medium by LDH assay (reference value: 27.47 +/- 3.23 %); format: functional
Mus musculus [6] = experiment: (§1) Anti-vascular cognitive impairment activity against bilateral common carotid artery occlusion-induced vascular dementia C57BL/6J mouse model assessed as reversal of hippocampal atrophy by measuring increase in ratio of size of hippocampus to lateral ventricle at 25 mg/kg, ip administered post surgery measured after 3 months by 7T-MRI analysis; format: functional, organism-based
Mus musculus [7] = experiment: (§2) Anti-vascular cognitive impairment activity against bilateral common carotid artery occlusion-induced vascular dementia C57BL/6J mouse model assessed as ratio of cerebral blood flow in right parietal area at 25 mg/kg, ip administered post surgery measured after 3 months (reference value: 0.761 +/- 0.037); format: functional
Mus musculus [8] = experiment: (§3) Anti-vascular cognitive impairment activity against bilateral common carotid artery occlusion-induced vascular dementia C57BL/6J mouse model assessed as improvement in short-term non-spatial working memory by measuring increase in novel object recognition at 25 mg/kg, ip administered post surgery measured after 1 month by novel object recognition test; format: functional, organism-based
Mus musculus [9] = experiment: Upregulation of acetylated H3K14 protein expression in hippocampus of bilateral common carotid artery occlusion-induced vascular dementia C57BL/6J mouse model at 25 mg/kg, ip measured after 3 months by Western blot analysis; format: functional, organism-based
Mus musculus [10] = experiment: as §1, with “hippocampal volume” for “ratio of size of hippocampus to lateral ventricle”; format: functional, organism-based
Mus musculus [11] = experiment: as §3, with “3 months” for “1 month”; format: functional, organism-based
Mus musculus [12] = experiment: as §2, with “left” for “right”, “months(reference” for “months (reference”, “0.792” for “0.761”, “0.029)” for “0.037)”; format: functional

Histone deacetylase 1, sequence (Q13547 whole entry, the tested form may be a part): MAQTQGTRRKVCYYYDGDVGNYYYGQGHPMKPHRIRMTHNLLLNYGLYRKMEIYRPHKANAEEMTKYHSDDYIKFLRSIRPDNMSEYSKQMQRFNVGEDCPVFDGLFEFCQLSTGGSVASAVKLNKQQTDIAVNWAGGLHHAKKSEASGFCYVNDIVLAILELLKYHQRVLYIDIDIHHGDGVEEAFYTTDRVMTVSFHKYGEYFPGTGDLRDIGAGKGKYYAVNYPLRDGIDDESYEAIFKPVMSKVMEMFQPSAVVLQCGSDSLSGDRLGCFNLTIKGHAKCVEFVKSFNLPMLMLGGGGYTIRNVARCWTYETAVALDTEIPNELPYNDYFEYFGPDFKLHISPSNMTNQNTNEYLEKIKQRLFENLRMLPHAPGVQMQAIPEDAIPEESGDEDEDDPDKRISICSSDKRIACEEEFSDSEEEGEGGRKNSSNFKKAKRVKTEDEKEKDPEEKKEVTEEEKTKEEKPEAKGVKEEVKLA
Histone deacetylase 2, sequence (Q92769 whole entry, the tested form may be a part): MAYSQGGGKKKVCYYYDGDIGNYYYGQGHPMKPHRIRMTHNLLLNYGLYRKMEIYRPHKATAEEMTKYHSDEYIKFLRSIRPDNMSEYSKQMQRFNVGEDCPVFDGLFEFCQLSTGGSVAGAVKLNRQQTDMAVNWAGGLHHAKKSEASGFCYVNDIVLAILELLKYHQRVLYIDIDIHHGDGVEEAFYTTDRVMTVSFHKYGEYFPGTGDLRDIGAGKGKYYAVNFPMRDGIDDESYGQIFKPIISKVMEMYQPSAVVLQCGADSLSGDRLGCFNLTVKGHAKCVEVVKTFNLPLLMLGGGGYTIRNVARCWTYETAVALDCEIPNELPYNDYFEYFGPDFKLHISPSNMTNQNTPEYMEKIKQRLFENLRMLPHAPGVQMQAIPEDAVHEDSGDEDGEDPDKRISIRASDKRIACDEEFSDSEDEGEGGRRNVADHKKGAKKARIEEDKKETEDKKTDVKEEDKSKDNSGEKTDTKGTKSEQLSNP

IC50 [1] | IC50 (Histone deacetylase 8) | IC50 (Histone deacetylase 2; sf21) | IC50 (Histone deacetylase 2; read-out: IC50) | IC50 (Histone deacetylase 1; read-out: IC50) | Compound | Activity (SH-SY5Y [2]) | Activity (SH-SY5Y [3]) | Activity (SH-SY5Y [4]) | further results
142 nM | 864 nM |  | 3030 nM | 5450 nM | O=C(CCCCCCCCC(=O)NCCCN1c2ccccc2CCc2ccc(Cl)cc21)NO |  | 65.87% | 84.35% | 
144 nM | 1070 nM |  | 2740 nM | 3400 nM | O=C(CCCCCCCC(=O)NCCCN1c2ccccc2CCc2ccc(Cl)cc21)NO |  | 76.55% | 100.96% | 
2610 nM | 1510 nM | Not Active |  |  | O=C(NO)c1ccc(CNCCCN2c3ccccc3CCc3ccc(Cl)cc32)cc1 | inactive |  |  | IC50 (Histone deacetylase 1; sf21): Not Active
821 nM | 2160 nM |  | 8480 nM | 6050 nM | O=C(/C=C/c1cccc(S(=O)(=O)NCCCN2c3ccccc3CCc3ccc(Cl)cc32)c1)NO |  |  |  | 
448 nM | 1780 nM |  | 8620 nM | 7280 nM | O=C(NO)c1ccc(C(=O)NCCCN2c3ccccc3CCc3ccc(Cl)cc32)cc1 |  | 30.74% |  | 
658 nM | 2330 nM | Not Active |  |  | O=C(CCCCCCC(=O)NCCCN1c2ccccc2CCc2ccc(Cl)cc21)NO |  | 97.21% | 74.3% | IC50 (Histone deacetylase 1; sf21): Not Active; Activity (SH-SY5Y [5]): 43.16%
1440 nM | 1850 nM |  | 5960 nM | 5100 nM | O=C(CCCC(=O)NCCCN1c2ccccc2CCc2ccc(Cl)cc21)NO | inactive |  |  | 

Further lines, the compound ahead of its results:

Compound | IC50 [1] | IC50 (Histone deacetylase 8) | IC50 (Histone deacetylase 2; sf21) | IC50 (Histone deacetylase 2; read-out: IC50) | IC50 (Histone deacetylase 1; read-out: IC50) | Activity (SH-SY5Y [2]) | Activity (SH-SY5Y [3]) | Activity (SH-SY5Y [4]) | further results
O=C(CCC(=O)NCCCN1c2ccccc2CCc2ccc(Cl)cc21)NO | > 10000 nM | > 10000 nM | Not Active |  |  | inactive |  |  | IC50 (Histone deacetylase 1; sf21): Not Active
O=C(CCCCCC(=O)NCCCN1c2ccccc2CCc2ccc(Cl)cc21)NO | 61.6 nM | 345 nM |  | 3960 nM | 2140 nM |  | 92.47% | 86.54% | 
O=C(CCCCC(=O)NCCCN1c2ccccc2CCc2ccc(Cl)cc21)NO | 2070 nM | 3090 nM |  | 9620 nM | 6800 nM | inactive |  |  | 
O=C(/C=C/c1ccc(S(=O)(=O)NCCCN2c3ccccc3CCc3ccc(Cl)cc32)cc1)NO | 762 nM | 874 nM | Not Active |  | > 10000 nM |  |  |  | 
CN(C)CCCN1c2ccccc2CCc2ccc(Cl)cc21 |  |  |  |  |  | inactive |  |  | 
O=C(CCCCCCC(=O)Nc1ccccc1)NO [VORINOSTAT] |  |  |  |  |  |  |  |  | Activity (Mus musculus [6]): inactive; Ratio (Mus musculus [7]): 0.83; Activity (Mus musculus [8]): Active; Activity (Mus musculus [9]): inactive; Activity (Mus musculus [10]): inactive; Activity (Mus musculus [11]): inactive; Ratio (Mus musculus [12]): 0.878
